For data set [1], the system named is KRAS G12V mutant NCI-H727 cells. The data set is described as follows: Proliferation inhibition of NCI-H727 cells, 3D CellTiter-Glo assay (Method B). Type of data set: cell-based, human. Particulars: Homo sapiens, NCI-H727, 120 h, Method B; 3D culture with 0.65% methylcellulose, 5 days, CTG; read-out: NCI-H727 IC50/nM. The method, boiled down:
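Cells grown in 3D medium (RPMI-1640, 10% FBS, 0.65% methylcellulose) overnight, then treated 5 days at 37 °C, 5% CO2 with 9 threefold dilutions from 10 µM top working concentration, duplicate wells. CellTiter-Glo luminescence read; IC50 (nM) fitted by dose-response-inhibition equation.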
On the technique in general: Cellular ATP, detected with luciferase, serves as a proxy for viable cell number.

Data set [2] deals with KRAS G12D mutant AGS cells. The data set is described as follows: Proliferation inhibition of AGS cells, CellTiter-Glo assay. The format is cell-based, human. Conditions: Homo sapiens, AGS, 72 h, 3 days, CTG; read-out: AGS IC50/nM. The method, boiled down: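 AGS cells at 1500 cells/well in F12K + 10% FBS were exposed for 3 days at 37°C to nine 3-fold dilutions from 10 µM top concentration, in duplicate. Viability read by CellTiter-Glo luminescence; IC50 (nM) from dose-response-inhibition fitting.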

The next data set in a line: Pharmacokinetics in mice. Particulars: mouse, po.
Data set [3] has as its system human lung cancer cells NCI-H441 with KRAS-G12V mutation. The data set is described as follows: Antitumor effect in NCI-H441 subcutaneous xenograft model. The format is in vivo, NU/NU mice. Particulars: 20 mpk, PO; for Tumor volume (mm^3) (day 16): BID×17; for TGI%: BID×17, day 16. How it is done:
NCI-H441 cells were purchased from ATCC (catalog number: HTB-174). Male NU/NU mice were purchased from Jiangsu Jicui Yaokang Biotechnology Co., Ltd.
NCI-H441 cells were cultured in RPMI-1640 medium containing 10% FBS. Cells in the logarithmic growth phase were collected and resuspended in PBS to an appropriate concentration for subcutaneous tumor inoculation in mice. Experimental mice were subcutaneously inoculated in the right posterior back at a seeding density of 1×10^6 cells/mouse+Matrigel, with a seeding volume of 0.1 mL. When the average tumor volume reached ~150 mm^3, mice were randomly assigned to groups based on tumor size and body weight for drug administration. Drug administration began immediately after grouping, and the day of administration was considered day 0. The drug was administered to the mice twice daily via gavage at doses of 10 mpk, 20 mpk, 30 mpk, or a solvent control (0.5% Tween 80+99.5% of 0.5% MC (400 cp) or 0.5% MC (400 cp)). During the experiment, mouse body weight and tumor size were measured twice weekly. Tumor size was calculated using the formula: Tumor volume (mm^3)=0.5×(Tumor long diameter × Tumor short diameter^2). Relative tumor inhibition rate (TGI) (%): TGI%=[1-(Average tumor volume at the end of treatment in a given treatment group - Average tumor volume at the start of treatment in the treatment group) / (Average tumor volume at the end of treatment in the solvent control group - Average tumor volume at the start of treatment in the solvent control group)] × 100%.

Data set [4] concerns human pancreatic cancer cells HPAC. Particulars: po, 20 mg/kg, 408 h.
Description: The following materials were used in this experiment: NOD/SCID mice, 6-8 weeks old, female, Jiangsu Jicui Yaokang Biotechnology Co., Ltd.; HPAC cells (carrying KRas G12D mutant protein, ATCC); Captisol (Wuhan Fengyao Tonghui Chemical Products Co., Ltd., Cas#182410-00-0); sodium acetate (aladdin) MC (sigma, 9004-67-5).
The experiment was conducted as follows: 6- to 8- week-old female NOD/SCID mice were subcutaneously inoculated with 1×10^7 HPAC cells in their right posterior back, with an inoculation volume of 0.1 mL. When the tumor reached an average volume of 150 mm^3, mice were randomly assigned to groups based on tumor size and body weight for drug administration. The day of drug administration was considered day 0. The test compound was administered by gavage to four mice in each group, while the control group received an equal volume of the solvent via gavage.
During the experiment, tumor volume and body weight were measured twice a week. Tumor volume was calculated using the formula: Tumor volume (mm^3)=0.5×(tumor long diameter×tumor short diameter^2). The mean tumor inhibition rate (TGI%) was calculated as follows: [(average tumor volume in the control group-average initial tumor volume in the control group)-(average tumor volume in the treatment group - average initial tumor volume in the treatment group)] / (average tumor volume in the control group - average initial tumor volume in the control group).
The test system of data set [5] is KRAS G12S mutant A549 cells. The data set is described as follows: Proliferation inhibition of A549 cells, 3D CellTiter-Glo assay. The format is cell-based. Conditions: Homo sapiens, A549, 120 h, read-out: A549 IC50/nM. How it is done: A549 cells (Nanjing Kebai Biotechnology Co., Ltd., catalog number CBP60084, adherent, culture medium (F12K Nutrient Mixture+10%FBS (GIBCO, Cat#10091-148) at 37°C, 5%CO2, and 95% humidity.
3D Cell Viability Assay: Cells in the logarithmic growth phase were harvested and counted using a platelet counter. Cell viability was assessed using the trypan blue exclusion method to ensure a viability of over 90%. The 3D cell culture medium was prepared by adding 1% MC (methylcellulose, Sigma, Cat#M0512) F-12K medium and 10% FBS. The cell concentration was adjusted to approximately 7407 cells/mL using the 3D medium, and the methylcellulose (MC) content was set to 0.65%. Then, 135 µL of cell suspension was added to each 96-well clear, flat-bottomed, black-walled plate (Greiner, Cat#655096). The cells in the 96-well plates were cultured overnight at 37°C with 5% CO2.
Drug preparation for IC50 assay: A 10-fold drug solution was prepared using culture medium. […] of the drug solution was added to each well of a 96-well plate seeded with cells to achieve a working concentration of up to 10 µM, with a 3× dilution, and 9 concentrations. 2 replicate wells for each drug concentration were set. The cells in the drug-treated 96-well plates were cultured at 37°C and 5% CO^2 for additional5 days, then CTG assay (CellTiter-Glo® Luminescent Cell Viability Assay (Promega, Cat#G7573)) were performed.
The cell plate was equilibrated to room temperature for 30 minutes and the CTG reagent was thawed. 75 µL of CTG solution was added to each well for detection, and the plate was shaken on an orbital shaker for 5 minutes to lyse the cells. The cell plate was placed at room temperature for 25 minutes to stabilize the cryo-luminescence signal and the cryo-luminescence value was read (EnVision® multi-plate reader, PerkinElmer#2105).
Data was analyzed using GraphPad Prism software. The dose-response-inhibition equation was used to fit the data to obtain the dose-response curve, and the IC50 value (nM) was calculated accordingly. [formula]

Where only a bound is given, the exact number is not on record here.

Description for Pharmacokinetics in mice: Male CD-1 mice, aged 6-8 weeks, were purchased from Zhejiang Vital River Laboratory Animal Co., Ltd.
For the PO administration group, compounds were formulated in 0.5% Tween 80 and 99.5% (0.5%MC (400cp)) vehicle or 0.5%MC (400cp) vehicle to a final concentration of 1 mg/mL or 2 mg/mL for each compound. The drug formulation was administered to CD-1 mice via gavage at a dose of 10 mL/kg. Blood samples were collected from the submandibular vein or other suitable means at 15 min, 30 min, 1 h, 2 h, 4 h, 6 h, 8 h, and 24 h after administration. The blood samples were centrifuged at low temperature for 5 minutes, and the plasma was collected and stored at -80°C for analysis.
10 µL of plasma sample was taken, 200 µL of methanol containing an internal standard as a precipitant was added to precipitate plasma proteins, the compounds to be tested in the plasma was extracted, centrifuged at low temperature, and 10 µL of the supernatant was injected. The drug concentration in blood plasma was analyzed by LC-MS/MS. The pharmacokinetic parameters were calculated using Winnonlin based on the blood drug concentration data at different time points.

One may read the AUC(0-t) as exposure summed from dosing to a finite time, without extrapolation to infinity. Low values mean less exposure, high ones more exposure. With `CCN1CC/C(=C\F)[C@](C)(COc2nc(N3Cc4cc(C(=O)N(C)C)nn4CC[C@@H]3C)c3cc(Cl)c(-c4c(F)ccc5sc(N)c(C#N)c45)c(F)c3n2)C1` (atropisomer, axis not shown) [Example 246A], the IC50 in data set [1] and in data set [2] was < 1.5 nM each time. The same compound came in with an AUC(0-t) at 8 h in “Pharmacokinetics in mice” (plasma, 20 mg/kg) of 1040 ng·h/mL.
Regarding `[2H]C([2H])([2H])C([2H])([2H])N1CC/C(=C\F)[C@](C)(COc2nc(N3Cc4c(COC)c(C(=O)N(C)C)nn4CC[C@@H]3C)c3cc(Cl)c(-c4c(F)ccc5sc(N)c(C#N)c45)c(C)c3n2)C1` (atropisomer, axis not shown) [Example 249A], the IC50 in data set [1] was < 1.5 nM; in data set [2], 2.3 nM. In “Pharmacokinetics in mice” (in vivo, 20 mg/kg), this compound yielded an AUC(0-t) at 8 h of 5360 ng·h/mL.
Turning to `[2H]C([2H])([2H])N1CCC(=CF)C(C)(COc2nc(N3CCCn4nc(C(=O)N(C)C)c(Cl)c4C3)c3cc(CC)c(-c4c(F)ccc5sc(N)c(C#N)c45)c(F)c3n2)C1` (atropisomer, axis not shown) [Example 265A], the IC50 in data set [1] worked out at 2.8 nM. For the same compound, the IC50 in data set [2] is < 1.5 nM. Moreover, in data set [3], the “Tumor volume (mm^3) (day 16)” value turned out to be 330 mm^3 and the TGI% came to 57%. Moreover, in data set [4], the “TGI%” value amounted to 80% and the “Tumor volume (mm^3) (day 17)” value was 237 mm^3.
Turning to `CCc1cc2c(N3Cc4cc(C(=O)N(C)C)nn4CC[C@@H]3C)nc(OC[C@]3(C)CN(CC)CC/C3=C\F)nc2c(F)c1-c1c(F)ccc2sc(N)c(C#N)c12` (single isomer, unassigned) [Example 175A], the results for the IC50 in data set [1], in data set [2] and in data set [5] were < 1.5 nM, < 1.5 nM and 23.3 nM, respectively. In addition, the “Tumor volume (mm^3) (day 16)” value in data set [3] came out at 266 mm^3. For the same compound, in data set [3], the TGI% is 73%.
In the case of `CCN1CC/C(=C\F)[C@](C)(COc2nc(N3Cc4cc(C(=O)N(C)C)nn4CC[C@@H]3C)c3cc(Cl)c(-c4c(F)ccc5sc(N)c(C#N)c45)c(C)c3n2)C1` (single isomer, unassigned) [Example 178A], the IC50 in data set [1] was < 1.5 nM; in data set [2], 1.9 nM. Further, the AUC(0-t) at 8 h in “Pharmacokinetics in mice” (plasma, 10 mg/kg) amounted to 1190 ng·h/mL.
For the compound `CCN1CC/C(=C\F)[C@](C)(COc2nc(N3Cc4c(COC)c(C(=O)N(C)C)nn4CC[C@@H]3C)c3cc(Cl)c(-c4c(F)ccc5sc(N)c(C#N)c45)c(C)c3n2)C1` (single isomer, unassigned) [Example 229A], the IC50 in data set [1] was < 1.5 nM; in data set [2], 1.7 nM. The same compound yielded an area under the curve AUC(0-t) at 8 h in the data set “Pharmacokinetics in mice” (in vivo, 20 mg/kg) of 4490 ng·h/mL.
As to `CCN1CC/C(=C\F)[C@](C)(COc2nc(N3Cc4c(O)c(C(=O)N(C)C)nn4CC[C@@H]3C)c3cc(Cl)c(-c4c(F)ccc5sc(N)c(C#N)c45)c(F)c3n2)C1` (single isomer, unassigned) [Example 233A], the IC50 in data set [1] and in data set [2] was < 1.5 nM throughout. This compound also showed an AUC(0-t) at 8 h in the data set “Pharmacokinetics in mice” (in vivo, 20 mg/kg) of 822 ng·h/mL.
In the case of `[2H]C([2H])([2H])N(C(=O)c1nn2c(c1COC)CN(c1nc(OC([2H])([2H])[C@]3(C)CN(CC)CC/C3=C\F)nc3c(F)c(-c4c(F)ccc5sc(N)c(C#N)c45)c(Cl)cc13)[C@@H](C)CC2)C([2H])([2H])[2H]` (single isomer, unassigned) [Example 235A], the IC50 in data set [1] and in data set [2] was < 1.5 nM in each case. Moreover, in the data set “Pharmacokinetics in mice” (plasma, 20 mg/kg), the AUC(0-t) at 8 h was found to be 2990 ng·h/mL.
Consider `CCOc1c(C(=O)N(C)C)nn2c1CN(c1nc(OC[C@]3(C)CN(CC)CC/C3=C\F)nc3c(F)c(-c4c(F)ccc5sc(N)c(C#N)c45)c(Cl)cc13)[C@@H](C)CC2` (single isomer, unassigned) [Example 236A], for which the IC50 in data set [1] was determined as 1.5 nM; in data set [2] it was 2.7 nM. This compound also returned an exposure AUC(0-t) at 8 h in “Pharmacokinetics in mice” (plasma, 20 mg/kg) of 2820 ng·h/mL.
In the case of `CCN1CC/C(=C\F)[C@](C)(COc2nc(N3Cc4c(COC)c(C(=O)N(C)C)nn4CC[C@@H]3C)c3cc(Cl)c(-c4c(F)cc(F)c5sc(N)c(C#N)c45)c(F)c3n2)C1` (single isomer, unassigned) [Example 237A], the IC50 in data set [1] and in data set [2] was < 1.5 nM throughout. The AUC(0-t) at 8 h in “Pharmacokinetics in mice” (plasma, 20 mg/kg) is 3910 ng·h/mL.
On to `CC[C@H]1CCn2nc(C(=O)N(C)C)c(COC)c2CN1c1nc(OC[C@]2(C)CN(CC)CC/C2=C\F)nc2c(F)c(-c3c(F)ccc4sc(N)c(C#N)c34)c(Cl)cc12` (single isomer, unassigned) [Example 240A], for which the figures for the IC50 in data set [1] and in data set [2] were < 1.5 nM and 2.5 nM, respectively. In addition, the AUC(0-t) at 8 h in the data set “Pharmacokinetics in mice” (plasma, 20 mg/kg) worked out at 2920 ng·h/mL.
In the case of `CCN1CC/C(=C\F)[C@](C)(COc2nc(N3CCCn4nc(C(=O)N(C)C)c(Cl)c4C3)c3cc(Cl)c(-c4c(F)ccc5sc(N)c(C#N)c45)c(F)c3n2)C1` (single isomer, unassigned) [Example 256A], the IC50 in data set [1] was < 1.5 nM; in data set [2], 1.5 nM. Moreover, the AUC(0-t) at 8 h in “Pharmacokinetics in mice” (plasma, 20 mg/kg) is 1380 ng·h/mL.
For the compound `[2H]C([2H])([2H])N1CC/C(=C\F)[C@](C)(COc2nc(N3Cc4c(COC)c(C(=O)N(C)C)nn4CC[C@@H]3C)c3cc(CC)c(-c4c(F)ccc5sc(N)c(C#N)c45)c(F)c3n2)C1` (single isomer, unassigned) [Example 258A], the IC50 in data set [1] is < 1.5 nM; in data set [2], 1.9 nM. The exposure AUC(0-t) at 8 h in the data set “Pharmacokinetics in mice” (plasma, 20 mg/kg) came out at 1320 ng·h/mL.
`CCN1CC/C(=C\F)[C@](C)(COc2nc(N3Cc4cc(C(C)=O)nn4CC[C@@H]3C)c3cc(Cl)c(-c4c(F)ccc5sc(N)c(C#N)c45)c(F)c3n2)C1` (single isomer, unassigned) [Example 268A]: the IC50 in data set [1] was determined as 4 nM; in data set [2], 3.5 nM. The compound also had an exposure AUC(0-t) at 8 h in the data set “Pharmacokinetics in mice” (plasma, 10 mg/kg) of 907 ng·h/mL.
In the case of `CCN1CCC(C(F)F)C(C)(COc2nc(N3Cc4c(COC)c(C(=O)N(C)C)nn4CCC3C)c3cc(Cl)c(-c4c(F)ccc5sc(N)c(C#N)c45)c(F)c3n2)C1` (stereo not shown) [Example 251A], the IC50 in data set [1] was < 1.5 nM; in data set [2], 1.8 nM. Further, the AUC(0-t) at 8 h in “Pharmacokinetics in mice” (plasma, 20 mg/kg) amounted to 1960 ng·h/mL.
Take `[2H]C([2H])([2H])N1CCC(=CF)C(C)(COc2nc(N3Cc4cc(C(=O)N(C)C)nn4CCC3C)c3cc(Cl)c(-c4c(F)ccc5sc(N)c(C#N)c45)c(F)c3n2)C1` (stereo not shown) [Example 255A]: the IC50 in data set [1] is < 1.5 nM. Moreover, in data set [2], the IC50 is < 1.5 nM. Besides, in data set [3], the “Tumor volume (mm^3) (day 16)” value worked out at 259 mm^3 and the TGI% is listed as 74%.
Consider `[2H]C([2H])([2H])N1CC/C(=C\F)[C@](C)(COc2nc(N3CCCn4nc(C(=O)N(C)C)c(Cl)c4C3)c3cc(C4CC4)c(-c4c(F)ccc5sc(N)c(C#N)c45)c(F)c3n2)C1` [Example 266A], for which the results for the IC50 in data set [1] and in data set [2] were 3 nM and < 1.5 nM, respectively. For the same compound, the “Tumor volume (mm^3) (day 16)” value in data set [3] amounted to 307 mm^3. The same compound displayed a TGI% in data set [3] of 63%.

(Values after patent publication EP4775577A1, “RAS INHIBITOR” (Tyligand Bioscience (Shanghai) Limited, priority 2023, dated 2025).)
